The text below walks through data of patent US5968907A (priority 1997, dated 1999).

For orientation: inhibition means the change of the read-out against control, counted positive when it falls.

Structures are written as SMILES.

The target of one assay is CFA I pili (Escherichia coli, UniProt P0CK93+P25734). Kind of assay: biochemical. Particulars: read-out: inhibition of CFA I pili binding to glycophorin.
Assay [1] addresses heat-labile enterotoxin from E. coli (Escherichia coli, UniProt P0CK94). Type of assay: binding. The settings on record: at the concentration employed in the assay.
The target in a further assay is cholera toxin (Vibrio cholerae serotype O1, UniProt P01556). Kind of assay: biochemical. Particulars: read-out: inhibition of binding of cholera toxin to ganglioside GD1b.
cholera toxin, sequence (P01556 22-124 limits assumed): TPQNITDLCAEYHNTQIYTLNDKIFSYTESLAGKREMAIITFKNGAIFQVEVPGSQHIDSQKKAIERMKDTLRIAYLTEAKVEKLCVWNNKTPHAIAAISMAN

CFA I pili, sequence (P0CK93 24-170): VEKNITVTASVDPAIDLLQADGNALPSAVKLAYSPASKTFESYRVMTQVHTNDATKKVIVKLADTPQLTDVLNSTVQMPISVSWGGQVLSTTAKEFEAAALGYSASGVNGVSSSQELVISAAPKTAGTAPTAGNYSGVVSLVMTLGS
CFA I pili, sequence (P25734 23-360): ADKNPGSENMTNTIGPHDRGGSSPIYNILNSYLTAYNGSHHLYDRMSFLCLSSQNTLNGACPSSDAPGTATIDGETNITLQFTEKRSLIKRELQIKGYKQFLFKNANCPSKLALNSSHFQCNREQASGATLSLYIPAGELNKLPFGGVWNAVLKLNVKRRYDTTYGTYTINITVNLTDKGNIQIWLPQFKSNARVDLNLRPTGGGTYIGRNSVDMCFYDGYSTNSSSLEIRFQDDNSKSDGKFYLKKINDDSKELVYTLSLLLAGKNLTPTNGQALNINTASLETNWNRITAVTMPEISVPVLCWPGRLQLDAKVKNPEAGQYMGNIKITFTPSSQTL
heat-labile enterotoxin from E. coli, sequence (P0CK94 whole entry, looked up): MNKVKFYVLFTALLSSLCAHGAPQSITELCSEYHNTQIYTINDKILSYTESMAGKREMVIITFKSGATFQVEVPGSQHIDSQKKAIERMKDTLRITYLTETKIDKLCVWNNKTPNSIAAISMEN

As to `NC1CCCCC1S[C@@H]1O[C@H](CO)[C@H](O)[C@H](O)[C@H]1O` (stereo partly drawn) [Example B2, 2-Aminocyclohex-1-yl 1-Thio-β-D-galactopyranoside], the inhibition at 1000 µg/mL at CFA I pili was 13 to 71%. Besides, in assay [1], the “inhibition of binding of heat-labile enterotoxin to ganglioside GD1b” value is “at least 20%”.

Take `O=C(O)[C@H](Cc1c[nH]cn1)NC1CCCCC(S[C@@H]2O[C@H](CO)[C@H](O)[C@H](O)[C@H]2O)C1` (stereo partly drawn) [Example H5, Nα-[3-(1-Thio-β-D-galactopyranosyl)cyclohept-1-yl]-L-histidine]: the inhibition at 1000 µg/mL at cholera toxin is below 20%; at CFA I pili, 13 to 71%.

Consider `CC(CC(C)S[C@@H]1O[C@H](CO)[C@H](O)[C@H](O)[C@H]1O)N[C@@H](Cc1c[nH]cn1)C(=O)O` (stereo partly drawn) [Example H8, Nα-[4-(1-Thio-β-D-galactopyranosyl)pent-2-yl]-L-histidine], for which the inhibition at 1000 µg/mL is below 20% at cholera toxin and 13 to 71% on CFA I pili.

For `CC1(C)CCC(N[C@@H](Cc2c[nH]cn2)C(=O)O)CC1S[C@@H]1O[C@H](CO)[C@H](O)[C@H](O)[C@H]1O` (stereo partly drawn) [Example H9, Nα-[4,4-Dimethyl-3-(1-thio-β-D-galactopyranosyl)-cyclohex-1-yl]-L-histidine], the results for the inhibition at 1000 µg/mL on cholera toxin and at CFA I pili were below 20% and 13 to 71%, respectively.

For the molecule `O=C(O)[C@H](Cc1c[nH]cn1)NC1CCCC(S[C@@H]2O[C@H](CO)[C@H](O)[C@H](O)[C@H]2O)C1` (stereo partly drawn) [Example H10, Nα-[3-(1-Thio-β-D-galactopyranosyl)cyclohex-1-yl]-L-histidine], the inhibition at 1000 µg/mL on cholera toxin was below 20%; on CFA I pili, 13 to 71%.

Regarding `O=C(O)[C@H](Cc1c[nH]c2ccccc12)NC1CCCC1S[C@@H]1O[C@H](CO)[C@H](O)[C@H](O)[C@H]1O` (stereo partly drawn) [Example I1, Nα-[2-(1-Thio-β-D-galactopyranosyl)cyclopent-1-yl]-L-tryptophan], the inhibition at 1000 µg/mL at cholera toxin was at least 20%; at CFA I pili it was 13 to 71%.

For the molecule `O=C(O)[C@H](Cc1c[nH]c2ccccc12)NC1CCCCC1S[C@@H]1O[C@H](CO)[C@H](O)[C@H](O)[C@H]1O` (stereo partly drawn) [Example I2, Nα-[2-(1-Thio-β-D-galactopyranosyl)cyclohex-1-yl]-L-tryptophan], the inhibition at 1000 µg/mL is below 20% at cholera toxin and 13 to 71% at CFA I pili. The “inhibition of binding of heat-labile enterotoxin to ganglioside GD1b” value in assay [1] is recorded as “at least 20%”.

As to `CC1(C)CCC(N[C@@H](CCCNC(=N)N)C(=O)O)CC1S[C@@H]1O[C@H](CO)[C@H](O)[C@H](O)[C@H]1O` (stereo partly drawn) [Example J9, Nα-[4,4-Dimethyl-3-(1-thio-β-D-galactopyranosyl)-cyclohex-1-yl]-L-arginine], the inhibition at 1000 µg/mL on cholera toxin was below 20%; on CFA I pili it was 13 to 71%.
